Measurements: patent US20220347253A1, “HEALTH FOOD AND COSMETICS FOR INCREASING THE AMOUNT OF APOPTOSIS CELLS AND DECREASING THE AMOUNT OF NECROSIS CELLS AND A METHOD OF MANUFACTURING A SPROUT-FORCING GRAPE SEED-DERIVED INGREDIENT FOR INCREASING THE AMOUNT OF APOPTOSIS CELLS AND DECREASING THE AMOUNT OF NECROSIS CELLS” (priority 2017, published 2022)

Legend:
[1] = test system: Normal human fibroblasts; experiment: Test for confirming anti-aging effect: amount of senescent cells by SA-β-gal (SPiDER-βGal) staining; assay type: cell-based; conditions: for amount of the senescent cells relative to Control: Control = 100%, Example 1/2/3 = 0.002/0.01/0.05 wt % ingredient, Comparative Example 1 = 0.0023 wt % resveratrol
Procedure: Subsequent to initiation, Normal human fibroblasts (KURABO INDUSTRIES LTD., product No.: KF-4109) were cultured in a basal medium (DMEM (Nacalai Tesque, Inc., product No.: 08456-65)), 10% FBS (BioWest, product No.: S1820, Lot No. 516536), and 1% antibiotic (penicillin-streptomycin mixed solution (Nacalai Tesque, Inc., product No.: 26253-84)) in a CO2 incubator (5% CO2, 37° C.) until a required number of cells were obtained. […] After the resolution, Example and Comparative Example resolved in a basal medium were centrifuged respectively (120,000 rpm (2,000 s^-1), 10 minutes) to remove insoluble materials. After the centrifugal separation, supernatant was collected, filtered and sterilized through a sterilizing filter to be used for each test. Anti-aging effect of Example and Comparative Example was tested by measuring an activity of β-galactosidase (senescence-associated β-galactosidase; SA-β-gal) generally used as a cell aging marker. Normal human fibroblasts prepared with a basal medium was seeded on a 96-well plate so as to be 1×10^4 cells/0.1 ml/well (black plate for fluorescence observation (Sumitomo Bakelite Co., Ltd. product No.: MS-8096F)) and cultured for 24 hours. After the culture, culture supernatants were respectively replaced with the below mediums with different conditions, and normal human fibroblasts were cultured again. The conditions for each medium are as follows. Each cell cultured with mediums with each condition are referred to as Examples 1-3, Comparative Example 1, and Control respectively. Example 1: a basal medium comprising 0.002 wt % of grape seed-derived anti-aging ingredients of the present invention. Example 2: a basal medium comprising 0.01 wt % of grape seed-derived anti-aging ingredients of the present invention. Example 3: a basal medium comprising 0.05 wt % of grape seed-derived anti-aging ingredients of the present invention. Comparative Example 1: a basal medium containing 0.0023 wt % of resveratrol. Control: a basal medium (comprising no grape seed-derived anti-aging ingredients of the present invention nor resveratrol). Normal human fibroblasts were cultured respectively with the conditions for up to 21 days. The mediums were exchanged every 2 to 3 days. After the culture, culture supernatants were removed and the cells were washed twice with PBS (Nissui Pharmaceutical Co., Ltd., product No.: 05913). […] After wash, the basal medium was added to normal human fibroblasts, and nuclei staining (living cells) and stained images of the senescent cells were taken by a fluorescence microscope (Keyence Corporation, product No.: BZ-[…]). The amount of the senescent cells were calculated based on the respective fluorescent images. […]

[2] = test system: Normal human fibroblasts; experiment: Amount of mitochondria (Mito Tracker Mitochondrion-Selective Probes); assay type: cell-based; conditions: for amount of mitochondria relative to Control: Control = 100%, Example 1/2/3 = 0.002/0.01/0.05 wt % ingredient, Comparative Example 1 = 0.0023 wt % resveratrol
Excerpt: Example 1: a basal medium comprising 0.002 wt % of grape seed-derived anti-aging ingredients of the present invention. Example 2: a basal medium comprising 0.01 wt % of grape seed-derived anti-aging ingredients of the present invention. Example 3: a basal medium comprising 0.05 wt % of grape seed-derived anti-aging ingredients of the present invention. Comparative Example 1: a basal medium containing 0.0023 wt % of resveratrol. Control: a basal medium (comprising no grape seed-derived anti-aging ingredients of the present invention nor resveratrol). The amount of mitochondria was measured using Mito Tracker Mitochondrion-Selective Probes (Invitrogen, product No.: M7512) which can selectively label mitochondria in a cell. After removing culture supernatants of normal human fibroblasts cultured in Example 2, normal human fibroblasts were washed twice with PBS (Nissui Pharmaceutical Co., Ltd., product No.: 05913). To the washed cells were added a basal medium comprising a 1000-fold diluted Hoechist 33342 solution (DOJINDO LABORATORIES, product No.: 346-07951) and a 2000-fold diluted Mito Tracker Mitochondrion-Selective Probes (Invitrogen, product No.: M7512), and normal human fibroblasts were cultured at 37° C. for 30 minutes. After the culture, culture supernatants were removed and normal human fibroblasts were washed twice with PBS (Nissui Pharmaceutical Co., Ltd., product No.: 05913). After wash, PBS (Nissui Pharmaceutical Co., Ltd., product No.: 05913) was newly added to the normal human fibroblasts, and nuclei staining (living cells) and stained images of mitochondria were taken by a fluorescence microscope (Keyence Corporation, product No.: BZ-[…]). Subsequently, each fluorescence intensity was measured using a fluorescent plate reader (Thermo Fisher Scientific, product No.: VARIOSKAN FLASH) (Hoechis: excitation wavelength 356 nm, fluorescence wavelength 465 nm, Mito Tracker: excitation wavelength 579 nm, fluorescence wavelength 599 nm).

[3] = test system: Normal human fibroblasts; experiment: Workload of a certain amount of mitochondria (MTT assay); assay type: cell-based; conditions: for workload of a certain amount of mitochondria relative to Control: Control = 100%, Example 1/2/3 = 0.002/0.01/0.05 wt % ingredient, Comparative Example 1 = 0.0023 wt % resveratrol
Excerpt: Example 1: a basal medium comprising 0.002 wt % of grape seed-derived anti-aging ingredients of the present invention. Example 2: a basal medium comprising 0.01 wt % of grape seed-derived anti-aging ingredients of the present invention. Example 3: a basal medium comprising 0.05 wt % of grape seed-derived anti-aging ingredients of the present invention. Comparative Example 1: a basal medium containing 0.0023 wt % of resveratrol. Control: a basal medium (comprising no grape seed-derived anti-aging ingredients of the present invention nor resveratrol). The workload of a certain amount of mitochondria was measured by MTT assay. Since the only target of MTT assay is dehydrogenase activity of mitochondria, the result of MTT assay reflects the workload of a certain amount of mitochondria. After measuring the fluorescence intensity, supernatants were removed, and normal human fibroblasts were washed once with PBS (Nissui Pharmaceutical Co., Ltd., product No.: 05913). After the normal human fibroblasts were washed, they were replaced with PBS (100 μl/well) comprising 0.5 mg/ml of MTT (Thiazolyl Blue Tetrazolium Bromide (SIGMA, product No.: […] Subsequently, 100 μl of 0.01M HCl (SIGMA, product No.: 13-1690) and 10% SDS (Wako Pure Chemical Corporation, product No.: 191-07145) were added to each well and reacted at room temperature for 24 hours. After the reaction, formazan of MTT was resolved. After resolving formazan, absorbance was measured using a plate reader (Thermo Fisher Scientific, product No.: VARIOSKAN FLASH) (measurement wavelength 550 nm, reference wavelength 660 nm).

[4] = test system: Normal human fibroblasts; experiment: Amount of apoptosis cells (FITC-Annexin V staining); assay type: cell-based; conditions: for amount of the apoptosis cells compared to the Control: Control = 100%, Example 1/2/3 = 0.002/0.01/0.05 wt % ingredient, Comparative Example 1 = 0.0023 wt % resveratrol
Excerpt: Example 1: a basal medium comprising 0.002 wt % of grape seed-derived anti-aging ingredients of the present invention. Example 2: a basal medium comprising 0.01 wt % of grape seed-derived anti-aging ingredients of the present invention. Example 3: a basal medium comprising 0.05 wt % of grape seed-derived anti-aging ingredients of the present invention. Comparative Example 1: a basal medium containing 0.0023 wt % of resveratrol. Control: a basal medium (comprising no grape seed-derived anti-aging ingredients of the present invention nor resveratrol). The amount of the apoptosis cells was measured using Annexin V which has been conventionally used as an apoptosis marker. In more detail, the amount of the apoptosis cells was measured by selectively fluorescently-staining the apoptosis cells by fluorescently labeled Annexin V, using its property that Annexin V binds to phosphatidylserine often appearing on a surface of the apoptosis cells. After removing the culture supernatant of a normal human fibroblast cultured in Example 2, the normal human fibroblast was washed twice with PBS (NISSUI PHARMACEUTICAL CO., LTD., product No.: 05913). To the washed normal human fibroblast were added a 1×Binding Buffer containing a 1000-fold diluted Hoechist 33342 solution (DOJINDO LABORATORIES, product No.: 346-079511), a 20-fold diluted FITC-Annexin V, and a 20-fold diluted EthD-III. Then, the normal human fibroblast was cultured at 37° C. for 30 minutes. Then, after removing culture supernatant, the normal human fibroblast was washed twice in the 1×Binding Buffer. New 1×Binding Buffer was added to the normal human fibroblast after the washing, and images of nuclear staining (viable cell), Annexin V staining (apoptosis), and an EthD-III staining (necrosis) were taken by a fluorescence microscope. The amount of apoptosis cells and the amount of necrosis cells were calculated from the fluorescent observation images. Furthermore, FITC-Annexin V, EthD-III and 1×Binding Buffer used in Examples were from Apoptotic/Necrotic/Healthy Cells Detection Kit (Takara Bio, Inc. product No.: D25517).

[5] = test system: Normal human fibroblasts; experiment: Amount of necrosis cells (EthD-III staining); assay type: cell-based; conditions: for amount of the necrosis cells compared to the Control: Control = 100%, Comparative Example 1 = 0.0023 wt % resveratrol
Excerpt: Example 1: a basal medium comprising 0.002 wt % of grape seed-derived anti-aging ingredients of the present invention. Example 2: a basal medium comprising 0.01 wt % of grape seed-derived anti-aging ingredients of the present invention. Example 3: a basal medium comprising 0.05 wt % of grape seed-derived anti-aging ingredients of the present invention. Comparative Example 1: a basal medium containing 0.0023 wt % of resveratrol. Control: a basal medium (comprising no grape seed-derived anti-aging ingredients of the present invention nor resveratrol). […] The amount of the necrosis cells was measured using an ethidium homodimer III (EthD-III) which has been conventionally used as a necrosis marker. In more detail, EthD-III is a film-impermeable nucleic acid probe and the amount of the necrosis cells was measured by using its property that neither the viable cells nor the apoptosis cells are stained but the necrosis cells are stained in strong red with EthD-III. After removing the culture supernatant of a normal human fibroblast cultured in Example 2, the normal human fibroblast was washed twice with PBS (NISSUI PHARMACEUTICAL CO., LTD., product No.: 05913). To the washed normal human fibroblast were added a 1×Binding Buffer containing a 1000-fold diluted Hoechist 33342 solution (DOJINDO LABORATORIES, product No.: 346-079511), a 20-fold diluted FITC-Annexin V, and a 20-fold diluted EthD-III. Then, the normal human fibroblast was cultured at 37° C. for 30 minutes. Then, after removing culture supernatant, the normal human fibroblast was washed twice in the 1×Binding Buffer. New 1×Binding Buffer was added to the normal human fibroblast after the washing, and images of nuclear staining (viable cell), Annexin V staining (apoptosis), and an EthD-III staining (necrosis) were taken by a fluorescence microscope. The amount of apoptosis cells and the amount of necrosis cells were calculated from the fluorescent observation images. Furthermore, FITC-Annexin V, EthD-III and 1×Binding Buffer used in Examples were from Apoptotic/Necrotic/Healthy Cells Detection Kit (Takara Bio, Inc. product No.: D25517).

[6] = test system: budding yeast (Saccharomyces cerevisiae); conditions: cited from earlier work
[7] = test system: male and female mouse; conditions: cited from earlier work

## Oc1ccc(/C=C/c2cc(O)cc(O)c2)cc1 [Comparative Example 1, trans-3,4′,5-trihydroxy-stillbene]
[1]; cells cultured for 7 days
  amount of senescent cells versus Control, in words: more senescent cells among cells cultured for 7 days than Control
[1]; cultured for 7 days
  amount of the senescent cells relative to Control: 519%
[1]; cultured for 14 days
  amount of the senescent cells relative to Control: 102%
[1]; cultured for 21 days
  amount of the senescent cells relative to Control: 64%
[2]; 7 to 21 days of culture
  effect on the amount of mitochondria, in words: increasing an amount of mitochondria
[2]; cultured for 7 days
  amount of mitochondria relative to Control: 191%
[2]; cultured for 14 days
  amount of mitochondria relative to Control: 228%
[3]; 7 to 21 days of culture
  effect on the workload of a certain amount of mitochondria, in words: decreasing the workload of a certain amount of mitochondria
[3]; cultured for 7 days
  workload of a certain amount of mitochondria relative to Control: 22%
[3]; cultured for 14 days
  workload of a certain amount of mitochondria relative to Control: 20%
[3]; cultured for 21 days
  workload of a certain amount of mitochondria relative to Control: 49%
[4]; 7 to 21 days of culture
  effect on the amount of the apoptosis cells, in words: increasing the amount of the apoptosis cells
[4]; cultured for 7 days
  amount of the apoptosis cells compared to the Control: 2184%
[4]; cultured for 14 days
  amount of the apoptosis cells compared to the Control: 1400%
[4]; cultured for 21 days
  amount of the apoptosis cells compared to the Control: 4525%
[5]; 7 to 21 days of culture
  effect on the amount of the necrosis cells, in words: increasing the amount of the necrosis cells in all the periods
[5]; concentration of resveratrol more than 0.0023 wt %
  necrosis cells at higher concentration, in words: necrosis cells increase too much
[5]; cultured for 7 days
  amount of the necrosis cells compared to the Control: 125%
[5]; cultured for 14 days (FIG. 5B), Example 1/2/3 = 0.002/0.01/0.05 wt % ingredient
  amount of the necrosis cells compared to the Control: 801%
[5]; cultured for 21 days, Example 1/2/3 = 0.002/0.01/0.05 wt % ingredient
  amount of the necrosis cells compared to the Control: 608%
[6]
  extension of the life span of the budding yeast: 70%
[7]
  effect on life span of mice, in words: does not extend the life span
